# Patent publication US5432165A, “Methods for the treatment of infection caused by Hepatitis B virus (HBV)” (priority 1992, dated 1995)
# Entries after “also recorded” stand apart in the source; their conditions may differ.
# Assay: Safety of oral FIAU in HIV-infected patients with chronic hepatitis B
# Protocol: Cohorts of five HIV-infected patients with chronic hepatitis B were studied at the tolerated doses. Plasma levels of FIAU and its major deiodinated metabolite FAU were determined two hours after dosing (peak levels) and just prior to dosing (trough levels) following the initial dose of FIAU and again on Days 3, 7, and 14 in order to make estimates of pharmacokinetic parameters including accumulation of drug or principal metabolite.
# This study is an open label, uncontrolled trial. […] Tolerated doses could be studied in an additional five patient cohort of chronic hepatitis B patients, who were potentially more at risk of side effects. A month of post-treatment follow-up was provided for the hepatitis cohorts due to the known propensity of this disease to "flare" after therapy.
# Additionally, all patients had to have completed the screening tests within four weeks of starting therapy, except for diagnostic HSV, VZV or CMV cultures. Those enrolled into the five patient cohorts of chronic hepatitis B patients had the same entry requirements, except that they had to have a history of chronic hepatitis B and be surface antigen positive. Liver function tests (AST, ALT, GGT, and bilirubin) could be Grade 2 or less at study entry for these patients. Patients receiving pentamidine aerosol for prophylaxis of recurrent Pneumocystis pneumonia could continue on this therapy during the study.
# Patients were evaluated clinically at the screening visit, and on Days 1, 3, 7, 10, and 14. The hepatitis patients were additionally evaluated on Days 21 and 42. The blood chemistry and urinalysis tests were repeated additionally on Days 2 and 5.
# Clinical evaluations consisted of a physical exam, which included a test of lower extremity muscle strength, medical history, systems review, grading of non-laboratory signs and symptoms of toxicity, and listing of concomitant medications. Additionally, at visits with clinical evaluations after Day 1, any adverse experiences were recorded.
# The Day 3 safety profile consisted of the clinical evaluation, hematology, serum biochemistry, urinalysis, stool guaiac tests and plasma samples for peak and trough levels of FIAU and its major metabolite FAU. On Day 7 patients underwent clinical evaluation, an ECG, peak and trough serum samples, T cell profile, and hematology, serum biochemistry, urinalysis, and stool guaiac tests. A clinical evaluation, hematology, serum biochemistry, and urinalysis tests were done on Day 10. These were repeated for the Day 14 evaluation with the addition of an ECG, T cell profile, stool guaiac, and peak and trough plasma samples. The post-treatment evaluations of the hepatitis patients on Days 21 and 42 consisted of a clinical evaluation and serum biochemistry tests.
smiles,measurement,setting,value
"O=c1[nH]c(=O)n([C@@H]2O[C@H](CO)[C@@H](O)[C@@H]2F)cc1I [FIAU, 1-(2'-deoxy-2'-fluoro-β-D-arabinofuranosyl)-5-iodouracil]",tolerance compared with 1.0 or 0.5 mg/kg-day,0.1 mg/kg-day,much better tolerated
same,incidents of fatigue,"0.1 mg/kg-day, four patients",only one incident of fatigue
same,tolerance of oral FIAU,"1.0 mg/kg-day TID 14 days, six hepatitis patients",completed the 14 days of therapy with no untoward effects; also recorded: relatively well-tolerated; also recorded: All six patients completed the full course of therapy
same,"increase in AST and ALT values, Patient 406","1.0 mg/kg-day, 28 days after completion of therapy",~5 fold
same,myositis,"1.0 mg/kg-day, Patient 101, after dosing was completed",severe myositis; also recorded: One patient experienced an episode of myositis
same,average drop in lymphocytes,"1.0 mg/kg-day, hepatitis patients",750 cells/mm^3
same,decrease in average CD4 count,"1.0 mg/kg-day, hepatitis patients, Baseline to Day 14, p=0.03",40%
same,average CD4 count at Day 14,"1.0 mg/kg-day, hepatitis patients, 691 at Baseline",415
same,average WBC at end of therapy,"1.0 mg/kg-day, hepatitis patients, baseline average 4,690, p=0.0085","3,430"
same,average drop in neutrophils,"1.0 mg/kg-day, hepatitis patients, not significant",approximately 300 cell/mm^3
same,decrease in lymphocytes,"1.0 mg/kg-day, hepatitis patients, p=0.00125",39%
same,significance of increases in liver enzymes during therapy,"1.0 mg/kg-day, hepatitis patients, p>0.1",increases in liver enzymes were not
same,patients with mild to moderate nausea,"1.0 mg/kg-day, six hepatitis patients",Four patients reported mild to moderate nausea
same,"change of AST and ALT values, Patient 401","1.0 mg/kg-day, very end of therapy, back below Baseline after a month of follow-up",doubling
same,toxicity overall,"doses of 0.1 to 1.0 mg/kg-day, HIV-infected patients with chronic hepatitis B",have not produced unacceptable toxicity
same,incidence of fatigue,the other groups (1.0 and 0.5 mg/kg-day),40-50%
